Counter-ions that a name gives are not always drawn. Like-named read-outs stand apart in the source and are kept apart here.
What was measured:
[1] = test system: SUM149PT breast cancer cell line; assay: CellTiter Glo cell viability / ZIP synergy in BRCA1mut model; type: cell-based; settings: single agent at the same low nM doses
Experimental: FIGS. 2A-2B are charts showing the ZIP synergy score matrix in a BRCA1mut model treated with gemcitabine at low-nanomolar concentrations (15 nM) synergizing with camonsertib 7.5 nM (2 days on (FIG. 2A) or 3 days on (FIG. 2B)). ZIP synergy scores greater than 10 indicate drug synergy and scores less than −10 indicates antagonism. Mean CTG cell viability data from 3 independent experiments were processed with SynergyFinder (https://synergyfinder.fimm.fi/; PMIDs: 35580060, 26949479). Dotted lines indicated doses exerting maximum synergy.
FIGS. 3A-3B show the synergy of gemcitabine with camonsertib in a BRCA1 mut model. […] FIG. 3B is a graph of the viability of the SUM149PT treated with the indicated compounds and schedules. Data (circles) from three independent experiments is provided with mean (bars)±SD. The P value calculated with an unpaired two-tailed Student's t-test. Cell viability was read out at day 8 with a CellTiter Glo (CTG) assay.
To assess the synergy between camonsertib and gemcitabine in a BRCA1-mutated cancer cell model in vitro, a SUM149PT breast cancer cell line was employed. The combination was administered at various dosing schedules—1, 2, or 3 day treatment with camonsertib combined with a single 4 h dose of gemcitabine (FIG. 3A).

[2] = test system: SUM149PT BRCA1 mutated xenograft; type: in vivo; settings: single agents at low doses: camonsertib 10 mg/kg PO 3 days on/4 days off; gemcitabine 20 mg/kg QW; 28 days
Experimental: The relative tumor xenograft volume (FIG. 4A) and change in body weight in mice treated (FIG. 4B) is shown for mice treated with gemcitabine at 20 mg/kg QW on Day 1 and/or camonsertib at 10 mg/kg PO on different schedules weekly for 28 days. Results are expressed as mean±SEM, N=7/group in female NOD-SCID mice. Statistical differences were established by Student's T-test (GraphPad Prism v9) with Welch's correction; ns=not significant, *p<0.05, **p<0.01.
A xenograft model was employed to assess the effect of camonsertib in combination with gemcitabine on tumor formation in an animal model. Mice harboring established tumors were treated with a vehicle control, camonsertib (10 mg/kg once per day with 3 days on/4 days off), gemcitabine (20 mg/kg once per week), or a combination of both camonsertib (once per day selected from 3 days on/4 days off, 2 days on/5 days off, or 1 day on/6 days off) and gemcitabine (once per week) for 28 days.
Relative tumor xenograft volume of the mice treated with gemcitabine at 20 mg/kg QW on Day 1 and/or camonsertib at 10 mg/kg PO on different schedules weekly for 28 days is shown in FIG. 4A and the change in body weight is shown in FIG. 4B. Results are expressed as mean±SEM, N=7/group in female NOD-SCID mice. Statistical differences were established by Student's T-test (GraphPad Prism v9) with Welch's correction; ns=not significant, *p<0.05, **p<0.01.

[3] = maximum tolerated dose in mice; type: in vivo
[4] = humans, cited from earlier work

Compound | cell viability (CTG, day 8) [1] | anti-tumor activity (relative tumor xenograft volume) [2] | MTD [3] [mg/kg] | MTD ([3]; mouse, in vivo, read-out: MTD) [mg/kg] | mean gemcitabine peak plasma concentration ([4]; 800 mg/m^2) [µM] | mean gemcitabine peak plasma concentration ([4]; 1000 mg/m^2) [µM]
C[C@@H]1COCCN1c1cc([C@]2(O)C[C@H]3CC[C@@H](C2)O3)c2cnn(-c3cc[nH]n3)c2n1 [camonsertib, (1R,5S)-3-[6-[(3R)-3-methylmorpholin-4-yl]-1-(1H-pyrazol-5-yl)pyrazolo[3,4-b]pyridin-4-yl]-8-oxabicyclo[3.2.1]octan-3-ol] | only modest effect | reduced activity | 30 | – | – | –
Nc1ccn([C@@H]2O[C@H](CO)[C@@H](O)C2(F)F)c(=O)n1 [gemcitabine, 2-Deoxy-2,2-difluorocytidine hydrochloride] | only modest effect | reduced activity | – | 100 | 24 | 32

From patent US20250090539A1, “COMBINATION TREATMENT OF CANCERS” (Repare Therapeutics Inc., priority 2023, published 2025)
